We go through one compound from patent US20130136809A1, “7-HYRDROXYFRULLANOLIDE ITS ANALOGS FOR PREVENTION CONTROL AND TREATMENT OF METABOLIC DISORDERS” (LAILA NUTRACEUTICALS, priority 2009, published 2013).

In the test the test system is perilipin. In words: Immunoblot of perilipin expression in 3T3-L1 adipocytes. As to conditions: 1 ug/ml; normalized with actin. The format is cell-based, mouse. The protocol:
Experimental protocol: Mouse pre-adipocyte 3T3-L1 cells are maintained in Dulbecco's Modified Eagles Medium (DMEM) supplemented with 2 mM glutamine, 4.5 g/L glucose and 10% fetal bovine serum. Equal number of cells was plated in each well of 24-well culture plates. Cells were pre-treated separately with 1 μg/mL 7-hydroxyfrullanolide for 2 h and followed by addition of differentiation medium containing 500 nM insulin, 1.0 μM dexamethasone, and 0.5 mM isobutylmethylxanthine (IBMX) for 48 h. Thereafter, cells were further incubated with post differentiation medium (DMEM containing 100 nM insulin) in presence or absence of 7-HF. […] Protein content was measured in Bradford method by using Coomassie blue dye and cell lysates were stored in aliquots at −80° C. until further use. The modulation of adipocyte differentiation markers such as Peroxisome proliferator-activated receptor gamma (PPARγ), CD36, adipocyte fatty acid binding protein (aP2); and intracellular lipid droplet surface associated protein, perilipin expression were evaluated by immunoblot assay.
Inhibition of protein expression of biomarker molecules adipocytes in presence or absence of 7-hydroxyfrullanolide (7-HF) was evaluated in immunoblot assay. […] Band intensities were calculated densitometrically and normalized with expression of actin in respective samples.
(In general: In western blotting, separated proteins are transferred to a membrane and probed.)

On to `C=C1C(=O)O[C@H]2C3=C(C)CCC[C@]3(C)CC[C@@]12O` [7-HF (1), 7-hydroxyfrullanolide], for which the perilipin protein expression result was “down-regulation”.
